Measured values from paper PMC7660103, “Discovery of Novel 3-Cyanopyridines as Survivin Modulators and Apoptosis Inducers” (Molecules, 2020).

Tests used:
[1] = test system: prostate carcinoma (PC-3) cells; assay: SRB cytotoxicity assay, PC-3; type: cell-based, human; conditions: for IC50: Homo sapiens, PC-3, SRB assay, 72 h, mean ± SD of three experiments; for Selectivity Index PC-3: SI = IC50 on WI-38/IC50 on PC-3
Protocol: In the present work, sulforhodamine B (SRB) colorimetric assay was done to evaluate the cytotoxic activity of the synthesized 3-cyano pyridines 4a–4e, 5a–5e, and 6a–6e on three human cancer cell lines: prostate carcinoma (PC-3), breast cancer (MDA-MB-231) and hepatocellular carcinoma (HepG2) cell lines. 5-FU was used as a standard drug for comparison.
Human cancer cells were obtained from Nawah Scientific Inc. (Mokatam, Cairo, Egypt). Cells were maintained in DMEM media containing […] streptomycin, 100 units/mL penicillin, and 10% heat-inactivated fetal bovine serum in humified, 5% (v/v) CO2 atmosphere at 37 °C.
(§1) Cell viability was estimated using the SRB assay. Aliquots of 100 µL cell suspension (5 × 10^3 cells) in 96-well plates were incubated in complete media for 24 h. Cells were treated with a second aliquot of 100 µL media containing various concentrations of the tested compounds (0.01, 0.1, 1, 10, and 100 μM). After 72 h, cells were fixed by replacing media with 15 µL of 10% TCA and then incubated at 4 °C for 1 h. After that, TCA solution was removed, and the cells were washed 5 times with distilled water. Aliquots of 70 µL SRB solution (0.4% w/v) were added and incubated in a dark place at room temperature for 10 min. Plates were washed 3 times with 1% acetic acid and allowed to air dry overnight. Then, 150 µL of TRIS (10 mM) was added to dissolve protein-bound SRB stain. The absorbance was measured at 540 nm using BMG LABTECH®-FLUO star Omega microplate reader (Ortenberg, Germany).

normal cell line WI-38 = assay: SRB cytotoxicity assay, normal cell line WI-38; type: cell-based; conditions: Homo sapiens, WI-38, mean ± SD of three experiments
Protocol: The cytotoxicity of the newly synthesized compounds on the normal cell line WI-38 was also evaluated in order to examine the safety of these compounds.
as §1

MDA-MB-231 cells = assay: Annexin V-FITC/PI apoptosis assay; type: cell-based, human; conditions: for total increase in apoptotic and necrotic cells compared to control: MDA-MB-231, Annexin V-FITC; for Percent of cell death: Apoptosis Late / Percent of cell death: Necrosis / Percent of cell death: Apoptosis Early / Percent of cell death: Total: MDA-MB-231, IC50 concentration, 48 h; for Percent of cell death: Apoptosis Late: control 0.31; for Percent of cell death: Necrosis: control 0.47; for Percent of cell death: Apoptosis Early: control 1.09; for Percent of cell death: Total: control 1.87
Protocol: So, inhibiting survivin should result in increased spontaneous apoptosis in tumor cells. In this study, the apoptotic potential of 5c and 5e was further assessed using Annexin V-FITC assay.
MDA-MB-231 cells were plated in 24-well tissue culture plates. […] After 48 h, cells that floated were collected from the medium. The adherent cells were separated using 0.05% trypsin. After that, a 10% FBS medium was added for inactivating trypsin. Following slow pipetting, the centrifugation of cells was done for 5 min at 1500× g. Then, the supernatant was discarded, and cells were then stained with double annexin V-fluorescein isothiocyanate in addition to propidium iodide (PI) staining following the manufacturer’s directions. Analysis of the cells was investigated using a FACScan flow cytometer.

Livin = assay: Western blotting of Livin in MDA-MB-231 cells; type: cell-based, human; conditions: for Livin protein level (Western blot, in words): MDA-MB-231, 1, 5 and 10 µM
Protocol: (§2) The ability of the 2-oxo-3-cyano pyridines 5c and 5e to cause an inhibition of survivin was evaluated by the use of Western blotting analysis in MDA-MB-231cells treated with different concentrations of both compounds (1, 5, and 10 µM). […] Furthermore, to test the effect of these compounds on some other IAP family proteins, the Western plot of Livin, XIAP, and C-IAP1 proteins was performed (Figure 6). […] The Supplementary Material Figures S40 and S41 contain western blotting analysis for 5c and 5e.
(§3) MDA-MB-231 cancer cells were incubated with 5c and 5e at different concentrations (1, 5, and 10 µM) for 48 h. Afterwards, the medium was detached, and the cells were washed using PBS (10 mmol/L, pH 7.4). Then, the cells were incubated on cold lysis buffer (50 mmol/L Tris–HCl, 150 mmol/L NaCl, 1 mmol/L EGTA, 1 mmol/L EDTA, 20 mmol/L NaF, […], 0.5% NP40, 1% Triton X-100, 1 mmol/L PMSF (pH 7.4)) and a freshly added cocktail inhibitor (Inhibitor Cocktail Set III, Calbiochem, La Jolla, CA) above ice for 30 min. Then, MDA-MB-231 cells were collected and centrifuged at 12,000× g for 15 min.
(§4) XIAp, Survivin, Livin, and cIAP1anti-mouse, anti-rabbit secondary antibodies, and GAPDH were purchased from Sigma-Aldrich, whereas the gel was obtained from BioRad. Polyacrylamide gels were moved to a nitrocellulose membrane in order to block in buffer (7% nonfat dry milk/1% Tween 20; in 20 mmol/L TBS (pH 7.6)) for 1 h and incubated for 2 h at room temperature with the suitable primary antibody in blocking buffer or overnight at 4 °C; then, they were incubated with secondary antibody HRP conjugate. Finally, the blots analysis was done using the imaging system.

C-IAP1 = assay: Western blotting of C-IAP1 in MDA-MB-231 cells; type: cell-based, human; conditions: for C-IAP1 protein level (Western blot, in words): MDA-MB-231, 1, 5 and 10 µM
Protocol: as §2, §3, §4

survivin = biological target: T1, survivin (Homo sapiens, UniProt O15392); assay: Rescue experiment with proteasome inhibitor MG132 (Western blot of survivin); type: cell-based; conditions: MDA-MB cells pre-treated with proteasome inhibitor MG132
T1 construct: Western blotting analysis in MDA-MB-231cells treated with different concentrations of both compounds; endogenous in cells; host or cells: MDA-MB-231
Protocol: Degradation of the dimeric proteins can result from the interaction with the hydrophobic dimerization interface, which leads to conformational changes. This degradation can be mediated by the proteasome enzyme. Since 5c and 5e were expected to inhibit survivin dimerization as shown in the docking study, we assumed that they may induce the degradation of survivin via the proteasome. Thus, a rescue experiment was performed by pre-treating MDA-MB-cells with the proteasome inhibitor MG132 prior to 5c/5e treatment. […] Thus, 5c and 5e likely promote survivin degradation through the proteasome.

T1 sequence (O15392 whole entry): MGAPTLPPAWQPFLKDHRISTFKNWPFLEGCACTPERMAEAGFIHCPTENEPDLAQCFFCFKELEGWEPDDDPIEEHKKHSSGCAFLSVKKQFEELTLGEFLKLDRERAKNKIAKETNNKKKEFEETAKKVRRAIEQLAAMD

COc1ccc(-c2cc(-c3ccc(OCc4ccc(F)cc4)cc3)[nH]c(=O)c2C#N)cc1 [Compound 5e, 6-(4-((4-Fluorobenzyl)oxy)phenyl)-4-(4-methoxyphenyl)-2-oxo-1,2-dihydropyridine-3-carbonitrile]
IC50 [1]: 4.46 ± 0.51 µM | Selectivity Index PC-3 [1]: 22.99 | activity relative to 5-FU, PC-3 ([1]; cytotoxicity compared with 5-FU): twice the activity of 5-FU | IC50 (normal cell line WI-38): 102.6 ± 0.81 µM | total increase in apoptotic and necrotic cells compared to control (MDA-MB-231 cells): 10.41 fold | Percent of cell death: Apoptosis Late (MDA-MB-231 cells): 10.91% | Percent of cell death: Necrosis (MDA-MB-231 cells): 2.38% | Percent of cell death: Apoptosis Early (MDA-MB-231 cells): 6.18% | Percent of cell death: Total (MDA-MB-231 cells): 19.47% | LIVIN band % (Livin; MDA-MB-231, 1µM): 25.7% | LIVIN band Area (Livin; MDA-MB-231, 1µM): 2085 | LIVIN band Height (Livin; MDA-MB-231, 1µM): 136 | LIVIN band Width (Livin; MDA-MB-231, 1µM): 33 | LIVIN band % (Livin; MDA-MB-231, 5µM): 16.6% | LIVIN band Area (Livin; MDA-MB-231, 5µM): 907 | LIVIN band Height (Livin; MDA-MB-231, 5µM): 68 | LIVIN band Width (Livin; MDA-MB-231, 5µM): 27 | LIVIN band % (Livin; MDA-MB-231, 10µM): 9.8% | LIVIN band Area (Livin; MDA-MB-231, 10µM): 330 | LIVIN band Height (Livin; MDA-MB-231, 10µM): 44 | LIVIN band Width (Livin; MDA-MB-231, 10µM): 14 | Livin protein level (Western blot, in words) (Livin): decreased the levels of these proteins | CIAP1 band % (C-IAP1; MDA-MB-231, 1µM): 18.2% | CIAP1 band Area (C-IAP1; MDA-MB-231, 1µM): 987 | CIAP1 band Height (C-IAP1; MDA-MB-231, 1µM): 98 | CIAP1 band Width (C-IAP1; MDA-MB-231, 1µM): 24 | CIAP1 band % (C-IAP1; MDA-MB-231, 5µM): 12.6% | CIAP1 band Area (C-IAP1; MDA-MB-231, 5µM): 766 | CIAP1 band Height (C-IAP1; MDA-MB-231, 5µM): 86 | CIAP1 band Width (C-IAP1; MDA-MB-231, 5µM): 23 | CIAP1 band % (C-IAP1; MDA-MB-231, 10µM): 10.2% | CIAP1 band Area (C-IAP1; MDA-MB-231, 10µM): 570 | CIAP1 band Height (C-IAP1; MDA-MB-231, 10µM): 79 | CIAP1 band Width (C-IAP1; MDA-MB-231, 10µM): 22 | C-IAP1 protein level (Western blot, in words) (C-IAP1): decreased the levels of these proteins | effect of MG132 pre-treatment on compound-induced survivin loss (survivin): MG132 reversed 5c/5e-induced survivin loss

N#Cc1c(-c2ccc(Cl)cc2)cc(-c2ccc(OCc3ccc(F)cc3)cc2)[nH]c1=O [Compound 5c, 4-(4-Chlorophenyl)-6-(4-((4-fluorobenzyl)oxy)phenyl)-2-oxo-1,2-dihydropyridine-3-carbonitrile]
IC50 [1]: 14.4 ± 0.38 µM | Selectivity Index PC-3 [1]: 6.33 | cytotoxicity relative to 5-FU ([1]; cell line not specified (PC-3, MDA-MB-231, HepG2 tested)): nearly half that of 5-FU | IC50 (normal cell line WI-38): 91.29 ± 0.47 µM | total increase in apoptotic and necrotic cells compared to control (MDA-MB-231 cells): 8.72 fold | Percent of cell death: Apoptosis Late (MDA-MB-231 cells): 8.67% | Percent of cell death: Necrosis (MDA-MB-231 cells): 2.58% | Percent of cell death: Apoptosis Early (MDA-MB-231 cells): 5.07% | Percent of cell death: Total (MDA-MB-231 cells): 16.32% | LIVIN band % (Livin; MDA-MB-231, 1µM): 20.2% | LIVIN band Area (Livin; MDA-MB-231, 1µM): 1305 | LIVIN band Height (Livin; MDA-MB-231, 1µM): 134 | LIVIN band Width (Livin; MDA-MB-231, 1µM): 22 | LIVIN band % (Livin; MDA-MB-231, 5µM): 13.4% | LIVIN band Area (Livin; MDA-MB-231, 5µM): 793 | LIVIN band Height (Livin; MDA-MB-231, 5µM): 84 | LIVIN band Width (Livin; MDA-MB-231, 5µM): 17 | LIVIN band % (Livin; MDA-MB-231, 10µM): 9.1% | LIVIN band Area (Livin; MDA-MB-231, 10µM): 514 | LIVIN band Height (Livin; MDA-MB-231, 10µM): 66 | LIVIN band Width (Livin; MDA-MB-231, 10µM): 17 | Livin protein level (Western blot, in words) (Livin): decreased the levels of these proteins | CIAP1 band % (C-IAP1; MDA-MB-231, 1µM): 39.7% | CIAP1 band Area (C-IAP1; MDA-MB-231, 1µM): 2565 | CIAP1 band Height (C-IAP1; MDA-MB-231, 1µM): 192 | CIAP1 band Width (C-IAP1; MDA-MB-231, 1µM): 24 | CIAP1 band % (C-IAP1; MDA-MB-231, 5µM): 34.1% | CIAP1 band Area (C-IAP1; MDA-MB-231, 5µM): 1941 | CIAP1 band Height (C-IAP1; MDA-MB-231, 5µM): 187 | CIAP1 band Width (C-IAP1; MDA-MB-231, 5µM): 22 | CIAP1 band % (C-IAP1; MDA-MB-231, 10µM): 31.9% | CIAP1 band Area (C-IAP1; MDA-MB-231, 10µM): 1884 | CIAP1 band Height (C-IAP1; MDA-MB-231, 10µM): 186 | CIAP1 band Width (C-IAP1; MDA-MB-231, 10µM): 18 | C-IAP1 protein level (Western blot, in words) (C-IAP1): decreased the levels of these proteins | effect of MG132 pre-treatment on compound-induced survivin loss (survivin): MG132 reversed 5c/5e-induced survivin loss
